Data published in US20230321055A1, “PREVENTIVE TREATMENT OF MIGRAINE” (priority 2022, published 2023).

Test system: participants with CM and moderate to severe symptoms of depression
Test: Same phase 3 study: analysis of participants with chronic migraine and moderate to severe symptoms of depression (PHQ-9 ≥10)
Assay type: in vivo, human
Parameters: MSQ v2.1 RFR, Change from baseline, mean / MSQ v2.1 RFP, Change from baseline, mean / MSQ v2.1 EF, Change from baseline, mean / MSQ v2.1 RFR, MMRM, LS mean change / MSQ v2.1 RFP, MMRM, LS mean change / MSQ v2.1 EF, MMRM, LS mean change / HIT-6, Change from baseline, mean / HIT-6, MMRM, LS mean change: scale not given here
Conditions: 60 mg QD
Excerpt: Depression is a common comorbidity in people with migraine and is a risk factor for transformation of EM to CM. Depressive symptoms predict increases in headache-related disability and poor health-related quality of life (HRQoL) in people with migraine. Thus, trial data analysis was used to evaluate the effect of atogepant in participants with CM and baseline symptoms of moderate to severe depression. Specifically, analysis of trial data evaluated the impact of atogepant on change in monthly migraine days, ≥50% and ≥75% responder rates, change in MSQ v2.1 domain scores, and PGIC in participants with CM and moderate to severe depression symptomology. PHQ-9 is a validated, screening and diagnostic tool designed to improve the recognition rate of depression and facilitates diagnosis and treatment. A cut-off score of ≥10 was used to identify participants with moderate or severe depressive symptoms, to determine eligibility and as a continuous outcome to measure changes in depression. As disclosed hereinabove, the MSQ v2.1 is a 14-item measure of health-related quality of life evaluating impacts attributed to migraine over the past 4 weeks and comprises three domains: Role Function-Restrictive (RFR), Role Function-Preventive (RFP), and Emotional Function (EF). PGIC is a single item used to measure the subject's impression of overall change in migraine since the first dose of study intervention. Findings for the atogepant 60 mg QD dose are presented herein. […] For the endpoint change from baseline in monthly migraine days and each MSQ v2.1 domain score, the comparison between treatment groups was analyzed using a restricted maximum likelihood-based mixed model for repeated measures (MMRM). Logistic regression models were used to analyze PGIC responder at week 12 and ≥50% or 75% responder rates across 12-week double-blind treatment period. ANCOVA model was used to analyze change from baseline in PHQ-9 score at week 12.
Analysis of trial data evaluated the impact of atogepant on headache day reduction, moderate/severe headache days, acute medication use day reduction, impacts of headache and migraine as evaluated by the HIT-6 and AIM-D, and symptoms of moderate to severe depression as measured by PHQ-9. A cut-off score of ≥10 was used to identify participants with moderate or severe depressive symptoms, to determine eligibility and as a continuous outcome to measure changes in depressive symptoms. Findings for the atogepant 60 mg QD dose are presented here. Similar results for the 30 BID dose (excluded for simplicity). For endpoints other than PHQ-9, the comparison between treatment groups were analyzed using a restricted maximum likelihood-based mixed model for repeated measures (MMRM). ANCOVA model was used to analyze PHQ-9 related endpoints.

[1] = across the 12-week treatment period, mITT, PHQ-9 ≥10 subgroup (n = 109)
[2] = mITT, PHQ-9 ≥10 subgroup (n = 109)
[3] = mITT, PHQ-9 ≥10 subgroup (n = 109), 12-week treatment period
[4] = week 12, mITT, PHQ-9 ≥10 subgroup (n = 109)

## C[C@@H]1[C@H](c2c(F)ccc(F)c2F)C[C@H](NC(=O)c2cnc3c(c2)C[C@@]2(C3)C(=O)Nc3ncccc32)C(=O)N1CC(F)(F)F [Atogepant, (S)—N—((3S,5S,6R)-6-methyl-2-oxo-1-(2,2,2-trifluoroethyl)-5-(2,3,6-trifluorophenyl)piperidin-3-yl)-2′-oxo-1′,2′,5,7-tetrahydrospiro[cyclopenta[b]pyridine-6,3′-pyrrolo[2,3-b]pyridine]-3-carboxamide]
[1]
  AIM-D PDA, Change from baseline, mean: −16.09
  AIM-D PDA, LSMD vs placebo: −5.91
  AIM-D PDA, MMRM, LS mean change: −13.50
  AIM-D PI, Change from baseline, mean: −13.84
  AIM-D PI, LSMD vs placebo: −4.63
  AIM-D PI, MMRM, LS mean change: −11.68
[2]
  AIM-D PDA, Months 1-3, mean: 22.29
  AIM-D PI, Months 1-3, mean: 20.07
  Monthly Acute Medication Use Days, Post-baseline (Month 1-3), mean: 9.51
  Monthly Headache Days, Post-baseline (Month 1-3), mean: 15.24
  Monthly Migraine Days, Post-baseline (Month 1-3), mean: 12.90
  Monthly Moderate/Severe Headache Days, Post-baseline (Month 1-3), mean: 10.22
  PHQ-9, Week 12, mean: 8.81
  ≥50% Responders, Odds ratio vs placebo: 3.70
  ≥75% Responders, Odds ratio vs placebo: 13.64
[3]
  Monthly Acute Medication Use Days, Change from baseline, mean: −7.52
  Monthly Acute Medication Use Days, LSMD vs placebo: −3.53
  Monthly Acute Medication Use Days, MMRM, LS mean change: −6.57
  Monthly Headache Days, Change from baseline, mean: −6.94
  Monthly Headache Days, LSMD vs placebo: −2.86
  Monthly Headache Days, MMRM, LS mean change: −6.52
  Monthly Migraine Days, Change from baseline, mean: −7.23
  Monthly Migraine Days, LSMD vs placebo: −3.04
  Monthly Migraine Days, MMRM, LS mean change: −6.71
  Monthly Moderate/Severe Headache Days, Change from baseline, mean: −7.34
  Monthly Moderate/Severe Headache Days, LSMD vs placebo: −2.68
  Monthly Moderate/Severe Headache Days, MMRM, LS mean change: −6.77
mITT, PHQ-9 ≥10 subgroup (n = 109), listed as atogepant
  ≥50% Responders, Odds ratio vs placebo: 3.7
Week 12, PHQ-9 ≥10 subgroup
  PGIC much better or very much better, OR vs placebo: 2.52
[4]
  HIT-6, Change from baseline, mean: −8.73
  HIT-6, LSMD vs placebo: −3.18
  HIT-6, MMRM, LS mean change: −8.37
  HIT-6, Post-baseline, mean: 57.68
  MSQ v2.1 EF, Change from baseline, mean: 30.17
  MSQ v2.1 EF, LSMD vs placebo: 9.24
  MSQ v2.1 EF, MMRM, LS mean change: 28.19
  MSQ v2.1 EF, Post-baseline, mean: 70.79
  MSQ v2.1 RFP, Change from baseline, mean: 24.95
  MSQ v2.1 RFP, LSMD vs placebo: 8.89
  MSQ v2.1 RFP, MMRM, LS mean change: 22.91
  MSQ v2.1 RFP, Post-baseline, mean: 73.71
  MSQ v2.1 RFR, Change from baseline, mean: 28.04
  MSQ v2.1 RFR, LSMD vs placebo: 8.77
  MSQ v2.1 RFR, MMRM, LS mean change: 25.56
  MSQ v2.1 RFR, Post-baseline, mean: 61.53
  PHQ-9, ANCOVA, LS mean change: −5.11
  PHQ-9, Change from baseline, mean: −5.61
  PHQ-9, LSMD vs placebo: −1.38
